Experimental data published in ChEMBL document CHEMBL4622906, “Design, synthesis and evaluation of novel levoglucosenone derivatives as promising anticancer agents” (Bioorg Med Chem Lett, 2020).
Calls of active or inactive are those of the source. No cut-off for these calls is given here.

Key:
[1] = tested on: MDA-MB-231; assay: Cytotoxicity against human MDA-MB-231 cells assessed as reduction in cell viability incubated for 48 hrs by MTT assay; format: functional, cell-based; conditions: MDA-MB-231, 48 h
[2] = tested on: NCI-H1299; assay: Cytotoxicity against human H1299 cells assessed as reduction in cell viability incubated for 48 hrs by MTT assay; format: functional, cell-based; conditions: NCI-H1299, 48 h
[3] = tested on: HT-29; assay: Cytotoxicity against human HT-29 cells assessed as reduction in cell viability incubated for 48 hrs by MTT assay; format: functional, cell-based; conditions: HT-29, 48 h
[4] = tested on: MDA-MB-231; assay: Cytotoxicity against human MDA-MB-231 cells with p53 knock down assessed as reduction in cell viability incubated for 48 hrs by MTT assay; format: functional, cell-based
[5] = tested on: NCI-H1299; assay: Cytotoxicity against human H1299 cells with p53 R280K mutant assessed as reduction in cell viability incubated for 48 hrs by MTT assay; format: functional, cell-based
[6] = Selectivity index, ratio of IC50 for African green monkey Vero cells to IC50 for human MDA-MB-231 cells; format: toxicity; conditions: Vero cells versus MDA-MB-231 cells, read-out: Ratio IC50
[7] = Selectivity index, ratio of IC50 for African green monkey Vero cells to IC50 for human H1299 cells; format: toxicity; conditions: Vero cells versus H1299 cells, read-out: Ratio IC50
[8] = Selectivity index, ratio of IC50 for African green monkey Vero cells to IC50 for human HT-29 cells; format: toxicity; conditions: Vero cells versus HT-29 cells, read-out: Ratio IC50

SMILES	IC50 [1]	IC50 [2]	IC50 [3]	inhibition [4]	cytotoxicity activity call (active/inactive) [5]	also measured
O=C1C[C@H](OCc2cc(/C=C/c3ccccc3)no2)[C@H]2CO[C@@H]1O2	22.9 µM	7.1 µM	13.7 µM	inactive	Active	
C=C(C)Cn1cc(CO[C@H]2CC(=O)[C@@H]3OC[C@H]2O3)nn1	26.7 µM	14.3 µM	17.2 µM	inactive	Active	
O=C1C[C@H](OCc2cn(C(=O)OCC3c4ccccc4-c4ccccc43)nn2)[C@H]2CO[C@@H]1O2	18.6 µM	9 µM	15.6 µM	inactive	Active	selectivity ratio [6]: > 2; selectivity ratio [7]: 5; selectivity ratio [8]: 6
O=C1C[C@H](OCc2cn(-c3cccc(Cl)c3Cl)nn2)[C@H]2CO[C@@H]1O2	26 µM					
O=C1C[C@H](OCc2cc(-c3ccccc3)no2)[C@H]2CO[C@@H]1O2	21.9 µM	9.8 µM	16.9 µM	inactive	Active	
CC(=O)N(Cc1cn(CC(=O)c2ccccc2)nn1)[C@H]1CC(=O)[C@@H]2OC[C@H]1O2	> 50 µM					
O=C1C[C@H](OCc2cc(-c3ccc4ccccc4c3)no2)[C@H]2CO[C@@H]1O2	21.2 µM					
O=C1C[C@H](OCc2cn(-c3ccccc3)nn2)[C@H]2CO[C@@H]1O2	25.2 µM	10.9 µM	13.4 µM	inactive	Active	
O=C1C[C@H](OCc2cn(-c3ccc(Cl)cc3)nn2)[C@H]2CO[C@@H]1O2	26.1 µM	10.6 µM	14.7 µM	inactive	Active	
O=C1C[C@H](OCc2cn(Cc3ccc4ccccc4c3)nn2)[C@H]2CO[C@@H]1O2	23.7 µM					
O=C(O)c1ccc(-n2cc(CO[C@H]3CC(=O)[C@@H]4OC[C@H]3O4)nn2)cc1	23.2 µM					
O=C1C[C@H](OCc2cc(-c3cc(C(F)(F)F)cc(C(F)(F)F)c3)no2)[C@H]2CO[C@@H]1O2	23.9 µM					
CCCCn1cc(CO[C@H]2CC(=O)[C@@H]3OC[C@H]2O3)nn1	27.9 µM					
O=C1C[C@H](OCc2cn(-c3ccc([N+](=O)[O-])cc3)nn2)[C@H]2CO[C@@H]1O2	24.8 µM	10.3 µM	18.3 µM	inactive	Active	
O=C1CCCCC1n1cc(CO[C@H]2CC(=O)[C@@H]3OC[C@H]2O3)nn1 (some centres undefined)	36 µM					
COc1ccc(/C=C/c2cc(CO[C@H]3CC(=O)[C@@H]4OC[C@H]3O4)on2)cc1	26.4 µM					
O=C1C[C@H](OCc2cc(-c3ccc([N+](=O)[O-])cc3)no2)[C@H]2CO[C@@H]1O2	16.5 µM	11.2 µM	19.8 µM	inactive	Active	
CCCCCCCCn1cc(CN(C(C)=O)[C@H]2CC(=O)[C@@H]3OC[C@H]2O3)nn1	> 50 µM					

SMILES	IC50 [1]	IC50 [2]	IC50 [3]	inhibition [4]	cytotoxicity activity call (active/inactive) [5]	also measured
O=C1C[C@H](OCc2cn(Cc3ccccc3)nn2)[C@H]2CO[C@@H]1O2	> 50 µM					
O=C1C[C@H](OCc2cn(-c3ccccc3Br)nn2)[C@H]2CO[C@@H]1O2	22.5 µM					
COC(=O)Cn1cc(CO[C@H]2CC(=O)[C@@H]3OC[C@H]2O3)nn1	21.3 µM					
O=C1C[C@H](OCc2cn(-c3cccc4ccccc34)nn2)[C@H]2CO[C@@H]1O2	21.9 µM					
O=C1C[C@H](OCc2cn(-c3ccc(F)cc3)nn2)[C@H]2CO[C@@H]1O2	23.7 µM					
O=C1C[C@H](OCc2cn(Cc3ccc([N+](=O)[O-])cc3)nn2)[C@H]2CO[C@@H]1O2	25.4 µM					
COC(=O)Cn1cc(CN(C(C)=O)[C@H]2CC(=O)[C@@H]3OC[C@H]2O3)nn1	> 50 µM					
O=C1C[C@H](OCc2cn(-c3ccccc3Cl)nn2)[C@H]2CO[C@@H]1O2	26.4 µM					
COc1ccc(Cn2cc(CO[C@H]3CC(=O)[C@@H]4OC[C@H]3O4)nn2)cc1	34.8 µM					
O=C1C[C@H](OCc2cn(C3CCCCC3)nn2)[C@H]2CO[C@@H]1O2	24.3 µM	12 µM	11.9 µM	inactive	Active	selectivity ratio [6]: > 2; selectivity ratio [7]: 5; selectivity ratio [8]: 6
CCCCCCCCn1cc(CO[C@H]2CC(=O)[C@@H]3OC[C@H]2O3)nn1	> 50 µM					
COc1ccc(-c2cc(CO[C@H]3CC(=O)[C@@H]4OC[C@H]3O4)on2)cc1	21.9 µM					
O=C1C[C@H](OCc2cc(C3CCCCC3)no2)[C@H]2CO[C@@H]1O2	15.8 µM	6.1 µM	9 µM	inactive	Active	
O=C1C[C@H](OCc2cc(-c3ccc(Cl)o3)no2)[C@H]2CO[C@@H]1O2	13.8 µM	7.6 µM	10.1 µM	inactive	Active	
CC(=O)N(Cc1cn(Cc2ccccc2)nn1)[C@H]1CC(=O)[C@@H]2OC[C@H]1O2	> 50 µM					
O=C1C[C@H](OCc2cc(-c3ccc(Cl)cc3)no2)[C@H]2CO[C@@H]1O2	17.9 µM	9 µM	14.5 µM	inactive	Active	
O=C(Cn1cc(CO[C@H]2CC(=O)[C@@H]3OC[C@H]2O3)nn1)c1ccccc1	25.9 µM					
